Data from ChEMBL document CHEMBL1151033, “Tricyclic cephems as inhibitors of human leukocyte elastase. Furo[3,4-c]cepham sulfones” (Bioorg Med Chem Lett, 1995).

Tests used:
[1] = biological target: T1, Neutrophil elastase (Homo sapiens) (UniProt P08246); assay: Inhibitory activity against human leukocyte elastase (HLE) expressed as second order inhibition rate constant
T1 sequence (whole entry): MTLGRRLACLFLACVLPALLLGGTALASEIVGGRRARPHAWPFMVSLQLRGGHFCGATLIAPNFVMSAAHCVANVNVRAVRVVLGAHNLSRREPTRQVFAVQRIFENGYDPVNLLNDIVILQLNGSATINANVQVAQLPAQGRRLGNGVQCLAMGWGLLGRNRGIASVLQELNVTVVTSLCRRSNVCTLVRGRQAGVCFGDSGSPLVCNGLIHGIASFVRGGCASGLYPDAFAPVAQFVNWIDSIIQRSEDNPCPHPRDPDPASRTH

[2] = Hydrolytic stability at 37 degrees Celsius in 50 mM phosphate buffer (2 % v/v MeCN as solubilising vehicle) at pH 7.4; assay type: physicochemical

| Structure (SMILES) | k on [1] [M⁻¹ s⁻¹] | half-life [2] [h] |
| --- | --- | --- |
| CO[C@H]1C(=O)N2c3c(coc3-c3ccccc3)CS(=O)(=O)[C@H]12 | 2000 | 71 |
| CO[C@H]1C(=O)N2c3c(coc3C(C)(C)C)[C@]3(CC3(c3ccccc3)c3ccccc3)S(=O)(=O)[C@H]12 | 8800 | 520 |
| CO[C@H]1C(=O)N2c3c(coc3C(C)(C)C)[C@@H](C)S(=O)(=O)[C@H]12 | 1000 | 140 |
| CO[C@H]1C(=O)N2c3c(coc3C(C)(C)C)CS(=O)(=O)[C@H]12 | 500 | 180 |
| CO[C@H]1C(=O)N2C(C(=O)C(C)(C)C)=C(C)CS(=O)(=O)[C@H]12 |  | 104 |
| CO[C@H]1C(=O)N2c3c(coc3C(C)(C)C)[C@@H](CC(=O)OC(C)(C)C)S(=O)(=O)[C@H]12 | 1100 |  |
| CO[C@H]1C(=O)N2C(C(=O)c3ccccc3)=C(C)CS(=O)(=O)[C@H]12 |  | 26 |
